# Assay results: ChEMBL document CHEMBL3045753, “In silico ligand-based pharmacophore model generation for the identification of novel Pneumocystis carinii DHFR inhibitors” (Med Chem Res, 2013)
# Target: T1, Dihydrofolate reductase (Pneumocystis carinii, UniProt P16184)
# T1 sequence (P16184 whole entry): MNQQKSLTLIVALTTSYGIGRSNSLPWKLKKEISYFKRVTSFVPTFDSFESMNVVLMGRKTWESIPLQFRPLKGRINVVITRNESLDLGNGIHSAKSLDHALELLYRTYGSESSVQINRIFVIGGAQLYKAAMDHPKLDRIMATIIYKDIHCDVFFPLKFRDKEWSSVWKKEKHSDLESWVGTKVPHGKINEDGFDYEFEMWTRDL
# Assay: Inhibition of Pneumocystis carinii DHFR
row,Compound,IC50 [nM]
1,CCc1nc(N)nc(N)c1-c1ccc(Cl)c(N(C)Cc2ccccc2)c1,1070
2,COc1cc(Cc2cnc(N)nc2N)cc(C#CCCC(=O)O)c1OC,1000

# Compounds with a lower IC50, results first:
row,IC50 [nM],Compound
1,711,COc1cc(C)c2c(OC3CCCCC3C(F)(F)F)c(OC)cc(NC(C)CCCN)c2n1 (stereo not given)
2,170,N=C(N)c1ccc(N2CCN(c3ccc(-c4nc5ccccc5[nH]4)cc3)CC2)cc1
3,620,CCc1nc2nc(N)nc(N)c2nc1CC
